How the values were obtained:
[1] = test system: healthy B cells; conditions: B cells from healthy donors; anti-μ 10 μg/ml plus H2O2 […], 10 min
Procedure: Cryopreserved PBMCs, 23 from CLL patients and 7 from healthy donors, were rapidly thawed in a 37° C. water bath. 1 mL of pre-warmed thawing media (PBS 1% FBS, 2 mM EDTA) was added dropwise to each of the cryovials. Thawed cells were transferred to a tube containing 8 mL thawing media. Tubes were inverted and centrifuged at 200×g for 8 minutes at room temperature. Supernatant was decanted, cell pellets were resuspended in 1 mL RPMI 1640 1% FCS and filtered over 70 um nylon mesh (BD Falcon) to remove cell clumps and debris. 11 mL of additional RPMI 1640 1% FCS was added to the samples to wash. […]
Supernatant was aspirated and each sample was resuspended in 4 mL of PBS. […] The supernatant was decanted and all samples were resuspended at a density of 2.4×10^6 cells/mL, using a volume specific to the number of cells determined from the cell counting procedure. […]
“Daughter” plates designated for treatment with modulators for or apoptosis inducing agents were generated from the “mother” plate with the use of a Liquidator 96-well pipettor (Rainin) Plates designated for treatment with modulators for phospho-readouts received 250 uL (6.0×10^5 cells) of cell suspension per well, and plates designated for treatment with apoptosis inducing agents received 333 uL (8.0×10^5 cells) of cell suspension per well. […]
Antibody cocktails for signaling and apoptosis readouts were prepared in FACS Buffer. […]

[2] = test system: CLL cells; conditions: in vitro treatment; Buchner 2009, Gobessi 2009; cited from earlier work

Row | Structure (SMILES) | effect of H2O2 on anti-μ-mediated BCR signaling [1] | apoptotic response of CLL cells [2]
1 | OO [H2O2, hydrogen peroxide] | further potentiated | 
2 | COc1cc(Nc2ncc(F)c(Nc3ccc4c(n3)NC(=O)C(C)(C)O4)n2)cc(OC)c1OC [R406] |  | mediated an apoptotic response

Reference: patent US20100297676A1, “METHODS FOR DIAGNOSIS, PROGNOSIS AND METHODS OF TREATMENT” (Nodality, Inc., priority 2009, published 2010)
